Assay: Broadband acoustic resonance dissolution spectroscopy (BARDS) dissolution profile in distilled water
Format: physicochemical
Details: 0.4M in 100 ml of double distilled water

time required for complete dissolution: 75 s
SMILES: O=S(=O)([O-])[O-].[Cu+2] [anhydrous form, Anhydrous copper sulphate]

Source: patent publication US8813566B2, “Instrumentation and analytical techniques suitable for broadband acoustic resonance dissolution spectroscopy” (University College Cork—National University of Ireland, priority 2008, dated 2014)
